Data reported in PubChem BioAssay (NCI).
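Briefly, cells in 96-well plates were exposed to five compound concentrations for 48 h, and endpoints were estimated by linear interpolation. Abbreviation: GI50, concentration required for 50% inhibition of growth. Definition used: TGI = concentration required for complete inhibition of growth.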

Tests used:
Assay in all cases: NCI tumour cell line growth inhibition, 48 h
SK-OV-3 ovarian = test system: SK-OV-3 ovarian
OVCAR-5 ovarian = test system: OVCAR-5 ovarian
SF-268 CNS = test system: SF-268 CNS
DU-145 prostate = test system: DU-145 prostate
SN12C renal = test system: SN12C renal
TK-10 renal = test system: TK-10 renal
KM12 colon = test system: KM12 colon
OVCAR-4 ovarian = test system: OVCAR-4 ovarian
K-562 leukemia = test system: K-562 leukemia

| Structure (SMILES) | TGI (SK-OV-3 ovarian) [µM] | TGI (OVCAR-5 ovarian) [µM] | TGI (SF-268 CNS) [µM] | TGI (DU-145 prostate) [µM] | TGI (SN12C renal) [µM] | TGI (TK-10 renal) [µM] | TGI (KM12 colon) [µM] | TGI (OVCAR-4 ovarian) [µM] | TGI (K-562 leukemia) [µM] | GI50 (SK-OV-3 ovarian) [µM] | GI50 (OVCAR-5 ovarian) [µM] | GI50 (K-562 leukemia) [µM] | GI50 (SN12C renal) [µM] | GI50 (KM12 colon) [µM] |
| --- | --- | --- | --- | --- | --- | --- | --- | --- | --- | --- | --- | --- | --- | --- |
| O=C(/C=C/c1ccc(O)c(O)c1)OCCc1ccc2ccccc2c1 | 26.3 | 29.7 | 27 | 24.3 | 17.8 | 20.4 | 12.9 |  |  |  |  |  |  |  |
| CN1CSC(=S)N(c2cccc(C(F)(F)F)c2)C1 | > 100 | 37 | 53 | > 100 | > 100 | 72.3 | 50.7 | 37.5 | 59.6 |  |  |  |  |  |
| COc1cc2nc(-c3ccc(Cl)cc3)cc(OCCCN3CCOCC3)c2cc1OC | > 100 | > 100 |  |  | > 100 |  | > 100 |  | > 100 | 3 | 1.58 | 2.71 | 1.3 | 3.87 |
| CCCCI(O)OS(=O)(=O)c1ccc(C)cc1 | > 100 | > 100 | > 100 | > 100 | > 100 | > 100 | > 100 | > 100 | > 100 |  |  |  |  |  |
| Cc1ccc2cccc(-c3cccc4ccccc34)c2n1 | 75.2 | 55.5 | > 100 | > 100 | > 100 | 36.2 | 63.4 | > 100 | 21 |  |  |  |  |  |
| CN(CCN1CCCC1)C1CCc2cc(Cl)c(Cl)cc2C1 (stereo not drawn) | 32.4 | 31.4 | 34 | 26 | 30.9 | 30.9 | 40.4 | 51.1 | > 100 |  |  |  |  |  |
| O=c1ccc2ccc(S)cc2o1 | > 100 | > 100 | > 100 | > 100 | > 100 | > 100 | > 100 | > 100 |  |  |  |  |  |  |
| COc1ccc(C2Oc3ccc(Cl)cc3C=C2[N+](=O)[O-])cc1 (stereo not drawn) | > 100 | > 100 | > 100 | > 100 | > 100 | > 100 | > 100 | > 100 | > 100 |  |  |  |  |  |
| Cc1c(C)n(-c2ccccc2)c2nc(S(C)=O)nc(S(C)=O)c12 (stereo not drawn) | 32.4 | 28.9 | 22.8 | 27.5 | 24.6 | 7.36 | 28.1 | 17.4 | 4.28 |  |  |  |  |  |
| O=C(ON=C1c2ccccc2C(Br)C(Br)c2ccccc21)c1ccccc1 (stereo not drawn) | 38.9 | 35.6 | 42.3 | 31.8 | 42.9 | 31.5 | 33.5 | 30 | 8.98 |  |  |  |  |  |
| N#Cc1c(-c2ccc([N+](=O)[O-])cc2)cc(-c2ccc(Nc3ccnc4cc(Cl)ccc34)cc2)[nH]c1=O | > 100 | > 100 | > 100 | > 100 |  | > 100 | > 100 | > 100 | > 100 |  |  |  |  |  |
| COc1cccc(C2c3cc4c(cc3OC(O)C2C)OCO4)c1OC (stereo not drawn) |  | 60.9 | 41.7 | 26.2 | 64 | 52 | 33.9 |  | 15.5 |  |  |  |  |  |
| CCOC(=O)CSc1nc(N)c2c(-c3ccccc3)c3c(nc2n1)CCCC3 | > 100 | > 100 | > 100 | > 100 | > 100 | > 100 | > 100 | > 100 | > 100 |  |  |  |  |  |
| C[C@@H]1CC[C@@]2(C)C(C(=O)O)=CCCC2[C@@]1(C)CC(=O)c1ccoc1 (stereo partly drawn) | > 25 | > 25 | > 25 | > 25 | > 25 | > 25 | > 25 | > 25 |  |  |  |  |  |  |
| Cc1nc2ccc(Cl)cc2c(-n2ccnc2)c1CCn1ccnc1 | > 100 | > 100 | > 100 | > 100 | > 100 | > 100 |  | > 100 | 89.3 |  |  |  |  |  |
| O=C(O)c1nc2ccc(C(F)(F)F)cc2[nH]c1=O | > 100 | > 100 | > 100 | > 100 | > 100 | > 100 | > 100 | > 100 | > 100 |  |  |  |  |  |
| COCOc1ccc(C(=O)Oc2cccc3c2OC(C)(C)O3)c(OCOC)c1 | > 100 | > 100 | > 100 | > 100 | > 100 | > 100 | 91.1 |  | > 100 |  |  |  |  |  |
| O=C1C=CC2(O[C@H](c3ccccc3)[C@@H](c3ccccc3)O2)[C@H](Sc2ccccc2O)C1 | 11.8 | 4.49 | 0.964 | 2.59 | 0.353 | 0.966 | 6.45 | 2.43 | 78.2 |  |  |  |  |  |
| c1c[nH]c(-c2cccc3nsnc23)c1 | > 100 | > 100 | > 100 | > 100 | > 100 | > 100 | > 100 | > 100 | > 100 |  |  |  |  |  |
| COc1ccc2c(c1)c1c(n2CCN2CCCCC2)-c2cccc(OC)c2CC1 | > 100 | 32.8 | 48.8 | > 100 | 36.8 | 32.8 | 28.8 | > 100 | 31.6 |  |  |  |  |  |
| C[n+]1cc2cc(O)c(O)cc2c2ccc3cc(O)c(O)cc3c21 | > 53 | > 100 | 13.5 | > 100 | 26 | > 73.2 | > 100 | > 100 | > 37.4 |  |  |  |  |  |
| Cn1c2ccccc2c2ccc3c(c21)C(=O)c1ccc2c4ccccc4n(C)c2c1C3=O | > 100 | > 100 | > 100 | > 100 | > 100 | > 100 | > 100 | > 100 | > 100 |  |  |  |  |  |
| CC(C)NC(=O)OCc1c(COC(=O)NC(C)C)n(C)c2c1ccc1sccc12 | > 100 | > 100 | 21.5 | 21.1 | 76.2 | 75.6 | 31.2 | 36.5 | > 52.2 |  |  |  |  |  |
| Cc1ccccc1-c1nc2c(N)nc(N)nc2nc1N | > 100 | > 100 | > 100 | > 100 | > 100 | > 100 | > 100 | > 100 | > 100 |  |  |  |  |  |
